Target: recombinant human SYK (GST-hSYK fusion protein) (Homo sapiens, UniProt P43405)
Settings: read-out: rhS YK Activity; Table 113C
Source text: Homogeneous Time-Resolved Fluorescence (HTRF) Assay for the Recombinant Human SYK Enzyme:

IC50 [nM]	Compound
< 100	Cc1cc(Nc2nccc(C(C)C)n2)cc(-c2cnc(C3(O)CCCNCC3)s2)c1 (stereo not drawn) [113C-14]

Same assay, conditions: read-out: rhSYK Activity (IC50); recombinant human GST-SYK 5 pM, ATP 25 μM, biotinylated substrate peptide 250 nM, HTRF, 10-dose titration

Compound	IC50 [nM]
Cc1cc(Nc2nccc(C(C)O)n2)cc(-c2cnc(C3(O)CCC(C(=O)O)C(C)(C)C3)s2)c1 (single isomer, unassigned) [Example 100A-15]	< 100
Cc1cc(Nc2nccc(C(O)C3CC3)n2)cc(-c2cnc(C3(O)CCC(C(=O)O)C(C)(C)C3)s2)c1 (single isomer, unassigned) [Example 100A-19]	< 100
Cc1cc(Nc2nccc(C(F)C3CC3)n2)cc(-c2cnc(C3(O)CCC(C(=O)O)C(C)(C)C3)s2)c1 (single isomer, unassigned) [Example 100A-22]	< 100
Cc1cc(Nc2nccc(C(C)(O)C3CC3)n2)cc(-c2cnc(C3(O)CCC(C(=O)O)C(C)(C)C3)s2)c1 (single isomer, unassigned) [Example 100A-26]	< 100
Cc1cc(Nc2nccc(OC3CNC3)n2)cc(-c2cnc(C3(O)CCC3)s2)c1 [Example 94A-28]	< 100
Cc1cc(Nc2nccc(OC3CCNCC3F)n2)cc(-c2cnc(C(C)(O)C(F)(F)F)s2)c1 (stereo not drawn) [Example 94B-7]	< 100
Cc1cc(Nc2nccc(O[C@@H]3CCNC3)n2)cc(-c2cnc(C(C)(O)C(F)(F)F)s2)c1 (stereo partly drawn) [Example 94B-8]	< 100
Cc1cc(Nc2nc(C)cc(C)n2)cc(-c2cnc(C3(O)CCC(C(=O)O)C(C)(C)C3)s2)c1 (stereo not drawn) [Example 100A-10]	100 to 1000

More lines, now with the values ahead:

IC50 [nM]	Compound
< 100	Cc1cc(Nc2nccc(C(F)(F)F)n2)cc(-c2cnc(CNC(CO)C(C)O)s2)c1 (single isomer, unassigned) [Example 88A-44]
< 100	Cc1cc(Nc2nccc(C(F)(F)F)n2)cc(-c2cnc(C(=O)NCC(O)CO)s2)c1 (stereo not drawn) [Example 87A-3]
< 100	Cc1cc(Nc2nccc(C(F)(F)F)n2)cc(-c2cnc(C(=O)NC[C@@H](O)CO)s2)c1 [Example 87A-4]
< 100	COC(=O)[C@H]1C[C@@H](O)CN1C(=O)c1ncc(-c2cc(C)cc(Nc3nccc(C(F)(F)F)n3)c2)s1 [Example 87B-23]
< 100	Cc1cc(Nc2nccc(C(F)(F)F)n2)cc(-c2cnc(C(=O)N3CC(O)CC3C(=O)O)s2)c1 (stereo not drawn) [Example 87B-24]

Same assay, conditions: read-out: rhSYK Activity; Table 8A

IC50 [nM]	Compound
< 100	Cc1cc(Nc2nccc(C(F)(F)F)n2)cc(-c2cnc(C3(O)CCC(O)C(C)(C)C3)s2)c1 (stereo not drawn) [8A-7]

Same assay, conditions: read-out: rhSYK Activity; Table 33-A

Compound	IC50 [nM]
Cc1cc(Nc2nccc(C)n2)cc(-c2cnc(C3(O)CCC(CC(=O)O)CC3)s2)c1 (stereo not drawn) [Example 33A-33]	< 100
COc1ccnc(Nc2cc(C)cc(-c3cnc(C4(O)CCC(C(=O)O)CC4)s3)c2)n1 (stereo not drawn) [Example 33A-36]	< 100
COc1ccnc(Nc2cc(C)cc(-c3cnc(C4(O)CCC(C)(C(=O)O)CC4)s3)c2)n1 (stereo not drawn) [Example 33A-37]	< 100
Cc1cc(Nc2ncc(F)c(C3CC3)n2)cc(-c2cnc(C3(O)CCC(C(=O)O)C(C)(C)C3)s2)c1 (stereo not drawn) [Example 33A-41]	< 100
Cc1cc(Nc2nccc(C3CC3)n2)cc(-c2cnc(C3(O)CCC(C(=O)O)C(C)(C)C3)s2)c1 (stereo not drawn) [Example 33A-42]	< 100
CC1(C)CC(O)(c2ncc(-c3cc(CO)cc(Nc4nccc(C(F)(F)F)n4)c3)s2)CCC1C(=O)O (stereo not drawn) [Example 33A-53]	< 100
Cc1cc(Nc2nccc(C)n2)cc(-c2cnc(C3(O)CCC(C(=O)O)C(C)(C)C3)s2)c1 (stereo not drawn) [Example 33A-68]	< 100

Further lines, results first:

IC50 [nM]	Compound
< 100	Cc1cc(Nc2nccc(C(F)(F)F)n2)cc(-c2cnc(C3(O)CCC(C(=O)O)CC3)s2)c1 (stereo not drawn) [Example 33A-6]
< 100	Cc1cc(Nc2nccc(C(F)(F)F)n2)cc(-c2cnc(C3(O)CCC(CCC(=O)O)CC3)s2)c1 (stereo not drawn) [Example 33A-19]
< 100	Cc1cc(Nc2nccc(C(F)(F)F)n2)cc(-c2cnc(C3(O)CCC(CCC(=O)O)CC3)s2)c1 (stereo not drawn) [Example 33A-20]
< 100	Cc1cc(Nc2nccc(C(F)(F)F)n2)cc(-c2cnc(C3(O)CCC(C(=O)O)C(C)(C)C3C)s2)c1 (stereo not drawn) [Example 33A-76]

Same assay, conditions: read-out: rhSYK Activity; Table 33B

Compound	IC50 [nM]
Cc1cc(Nc2nccc(C)n2)cc(-c2cnc(C3(O)CCC(C(=O)O)C(C)C3)s2)c1 (stereo not drawn) [Example 33B-32]	< 100
Cc1cc(Nc2nccc(C)n2)cc(-c2cnc(C3(O)CCC(C(=O)O)C(C(C)C)C3)s2)c1 (stereo not drawn) [Example 33B-34]	< 100
Cc1cc(Nc2nccc(C)n2)cc(-c2cnc(C3(O)CCC(C(=O)O)C(C(C)C)C3)s2)c1 (stereo not drawn) [Example 33B-36]	< 100

Next, values leading:

IC50 [nM]	Compound
< 100	Cc1cc(Nc2nccc(C(F)(F)F)n2)cc(-c2cnc(C3(O)CCCC(C(=O)O)C(C)(C)C3)s2)c1 (stereo not drawn) [Example 33B-8]
< 100	Cc1cc(Nc2nccc(C(F)(F)F)n2)cc(-c2cnc(C3(O)CCCC(C(=O)O)C(C)(C)C3)s2)c1 (stereo not drawn) [Example 33B-9]
< 100	Cc1cc(Nc2nccc(C(F)(F)F)n2)cc(-c2cnc(C3(O)CCCC(C(=O)O)C(C)(C)C3)s2)c1 (stereo not drawn) [Example 33B-10]
< 100	Cc1cc(Nc2nccc(C(F)(F)F)n2)cc(-c2cnc(C3(O)CCCC(C(=O)O)C(C)(C)C3)s2)c1 (stereo not drawn) [Example 33B-12]

Same assay, conditions: read-out: rhSYK Activity; Table 33C

IC50 [nM]	Compound
< 100	Cc1cc(Nc2nccc(C(F)(F)F)n2)cc(-c2cnc(C3(O)C[C@@H]4C(C(=O)O)[C@@H]4C3)s2)c1 (stereo partly drawn) [Example 33C-10]
< 100	CCOC(=O)C1[C@H]2CC(O)(c3ncc(-c4cc(C)cc(Nc5nccc(C(F)(F)F)n5)c4)s3)C[C@@H]12 (stereo partly drawn) [Example 33C-12]
< 100	Cc1cc(Nc2nccc(C)n2)cc(-c2cnc(C3(O)CC4CCC3CC4C(=O)O)s2)c1 (stereo not drawn) [Example 33C-19]

Same assay, conditions: read-out: rhSYK Activity; Table 36A

IC50 [nM]	Compound
100 to 1000	COC(=O)C1CCC(c2ncc(-c3cccc(Nc4nccc(C(F)(F)F)n4)c3)s2)CC1 (stereo not drawn) [Example 36A-5]

Same assay, conditions: read-out: rhSYK Activity; Table 54B

Compound	IC50 [nM]
Cc1cc(Nc2nccc(C)n2)cc(-c2cnc(C3(O)CCN(C(N)=O)C3)s2)c1 (stereo not drawn) [54B-14]	< 100
Cc1cc(Nc2nccc(C)n2)cc(-c2cnc(C3(O)CCN(C(N)=O)C3)s2)c1 (stereo not drawn) [54B-15]	< 100

The next lines start with the values.

IC50 [nM]	Compound
< 100	Cc1cc(Nc2nccc(C(F)(F)F)n2)cc(-c2cnc(C3(O)CCN(C(N)=O)C3)s2)c1 (stereo not drawn) [54B-3]
< 100	Cc1cc(Nc2nccc(C(F)(F)F)n2)cc(-c2cnc(C3(O)CCN(C(N)=O)C3)s2)c1 (stereo not drawn) [54B-7]

Same assay, conditions: read-out: rhSYK Activity; Table 54D

Compound	IC50 [nM]
Cc1cc(Nc2nccc(C(F)(F)F)n2)cc(-c2cnc(C3(O)CCCN(C(=O)c4nc[nH]n4)CC3)s2)c1 (single isomer, unassigned) [Example 54D-125]	< 100
Cc1cc(Nc2nccc(C(C)C)n2)cc(-c2cnc(C3(O)CCCN(C(=O)C(C)O)CC3)s2)c1 (stereo not drawn) [Example 54D-3]	< 100
Cc1cc(Nc2nccc(C(F)(F)F)n2)cc(-c2cnc(C3(O)CCCN(C(=O)c4n[nH]c(=O)[nH]4)CC3)s2)c1 (stereo not drawn) [Example 54D-63]	< 100
Cc1cc(Nc2nccc(C(F)(F)F)n2)cc(-c2cnc(C3(O)CCCN(C(=O)CC4CCOC4)CC3)s2)c1 (stereo not drawn) [Example 54D-69]	< 100
Cc1cc(Nc2nccc(C(F)(F)F)n2)cc(-c2cnc(C3(O)CCCN(C(=O)Cc4n[nH]c(=O)[nH]4)CC3)s2)c1 (stereo not drawn) [Example 54D-94]	< 100

Second part, the compound after the results:

IC50 [nM]	Compound
< 100	Cc1cc(Nc2nccc(C(F)(F)F)n2)cc(-c2cnc(C3(O)CCCN(C(N)=O)CC3)s2)c1 (single isomer, unassigned) [Example 54D-120]
< 100	Cc1cc(Nc2nccc(C(F)(F)F)n2)cc(-c2cnc(C3(O)CCCN(C(=O)CO)CC3)s2)c1 (single isomer, unassigned) [Example 54D-123]
< 100	Cc1cc(Nc2nccc(C(F)(F)F)n2)cc(-c2cnc(C3(O)CCCN(C(=O)c4cnn[nH]4)CC3)s2)c1 (stereo not drawn) [Example 54D-35]

Same assay, conditions: read-out: rhSYK Activity; Table 54E

IC50 [nM]	Compound
< 100	Cc1cc(Nc2nccc(C(F)(F)F)n2)cc(-c2cnc(C3(O)CCC(NC(=O)CC4CCCO4)CC3)s2)c1 (stereo not drawn) [Example 54E-19]

Same assay, conditions: read-out: rhSYK Activity; Table 74A

IC50 [nM]	Compound
100 to 1000	CC(C)(c1ncc(-c2cc(F)cc(Nc3nccc(C(F)(F)F)n3)c2)s1)S(N)(=O)=O [74A-10]

Same assay, conditions: read-out: rhSYK Activity; Table 108A

IC50 [nM]	Compound
< 100	Cc1cc(Nc2nccc(OC3CCCNCC3)n2)cc(-c2cnc(C3(O)CCC3)s2)c1 (stereo not drawn) [Example 108A-10]
< 100	Cc1cc(Nc2nccc(OC3CCCNCC3)n2)cc(-c2cnc(C3(O)CCC3)s2)c1 (stereo not drawn) [Example 108A-11]

Same assay, conditions: read-out: rhSYK Activity; Table 113A

IC50 [nM]	Compound
< 100	Cc1cc(Nc2nccc(C)n2)cc(-c2cnc(C3(O)CCC(C(=O)O)C(C)C3)s2)c1 (stereo not drawn) [Example 113A-5]
< 100	Cc1cc(Nc2nccc(C)n2)cc(-c2cnc(C3(O)CCC(C(=O)O)C(C)C3)s2)c1 (stereo not drawn) [Example 113A-6]
< 100	Cc1cc(Nc2nccc(C)n2)cc(-c2cnc(C3(O)CCC(C(=O)O)C(C)C3)s2)c1 (stereo not drawn) [Example 113A-7]
< 100	CCc1ccnc(Nc2cc(C)cc(-c3cnc(C4(O)CCC(C(=O)O)C(C)C4)s3)c2)n1 (stereo not drawn) [Example 113A-15]
< 100	Cc1ccnc(Nc2cc(-c3cnc(C4(O)CCC(C(=O)O)C(C)C4)s3)cc(C3CC3)c2)n1 (stereo not drawn) [Example 113A-24]
< 100	CCOC(=O)C1CCC(O)(c2ncc(-c3cc(C)cc(Nc4nccc(CC)n4)c3)s2)CC1C (stereo not drawn) [Example 113A-32]
< 100	COCCOc1ccnc(Nc2cc(C)cc(-c3cnc(C4(O)CCC(C(=O)O)C(C)C4)s3)c2)n1 (stereo not drawn) [Example 113A-39]
< 100	COCCCOc1ccnc(Nc2cc(C)cc(-c3cnc(C4(O)CCC(C(=O)O)C(C)C4)s3)c2)n1 (stereo not drawn) [Example 113A-41]
< 100	CCOC(=O)C1CCC(O)(c2ncc(-c3cc(C)cc(Nc4nccc(OCCOC)n4)c3)s2)CC1C (stereo not drawn) [Example 113A-44]
< 100	CCOC(=O)C1CCC(O)(c2ncc(-c3cc(C)cc(Nc4nccc(OCCCOC)n4)c3)s2)CC1C (stereo not drawn) [Example 113A-48]
< 100	Cc1cc(Nc2nccc(C)n2)cc(-c2cnc(C3(O)CCC(C(=O)O)C(C)C3C)s2)c1 (stereo not drawn) [Example 113A-67]

Same assay, conditions: read-out: rhSYK Activity; Table 116A

IC50 [nM]	Compound
< 100	Cc1cc(Nc2nccc(C(F)F)n2)cc(-c2cnc(C3(O)CCC(C(=O)O)C(C)C3)s2)c1 (stereo not drawn) [116A-19]
< 100	Cc1cc(Nc2ncc(Cl)c(C)n2)cc(-c2cnc([C@]3(O)CC[C@@H](C(=O)O)C(C)(C)C3)s2)c1 [116A-26]
